# Source: US20150374666A1, “AQUEOUS LIQUID COMPOSITION INCLUDING HIGH CONCENTRATION OF L-HISTIDINE” (AJINOMOTO CO., INC., priority 2013, published 2015)
# Assay: solubility of histidine added to acidic aqueous solution, left standing at room temperature for 24 hr
# Format: physicochemical
# Method: (§1) Acidic substances (acetic acid, phosphoric acid, citric acid, malic acid, or tartaric acid) in the amounts indicated in Table 1 were added to and dissolved in water at 80 to 100° C. to prepare acidic aqueous solutions. Then, to the prepared acidic aqueous solutions was added histidine (HIS) in the amounts indicated in Table 1, and the mixtures were thoroughly stirred. The mixtures were left standing at room temperature for 24 hr, and the solubility of histidine was examined.
# Acidic substances (citric acid, malic acid or tartaric acid) in the amounts indicated in Table 2 were added to and dissolved in water at 80 to 100° C. to prepare acidic aqueous solutions. Then, to the prepared acidic aqueous solutions was added histidine (HIS) in the amounts indicated in Table 2 to a concentration of not less than 45 wt %, and the mixtures were thoroughly stirred. The mixtures were left standing at room temperature for 24 hr, and the solubility of histidine was examined. In Table 2, “-” in the pH column means unmeasurable. In Table 2, the composition with *2 was prepared after preparation of the composition with *1, by reducing the amount of water by evaporation under reduced pressure.
# Citric acid in the amount indicated in Tables 3 to 5 were added to and dissolved in water at 80 to 100° C. to prepare acidic aqueous solutions. Then, to the prepared acidic aqueous solutions was added histidine (HIS) in the amounts indicated in Tables 3 to 5, and the mixtures were thoroughly stirred. The mixtures were left standing at room temperature for 24 hr, and the solubility of histidine was examined. In Table 5, the composition with *2 was prepared after preparation of the composition with *1, by reducing the amount of water by evaporation under reduced pressure.
# as §1, with “substances (citric acid or” for “substances (acetic acid, phosphoric acid, citric acid,”, “malic” for “malic acid, or tartaric”, “Table 6 and 7” for “Table 1”, “histidine” for “histidine (HIS)”, “Table 6 and 7 to a concentration of 20 wt % or 30 wt %,” for “Table 1,”
smiles,measurement,setting,value
"N[C@@H](Cc1c[nH]cn1)C(=O)O [HIS, histidine]",preparation of liquid composition having a histidine concentration of not less than 47.4 wt %,0.56 part by weight of citric acid or malic acid per 1 part by weight of histidine,could not be prepared
same,solubility,"Table 1: citric acid 60 g, water 50 g, His 90 g, acidic substance/HIS 0.67 W/W, pH before His addition 0.40, HIS concentration 45.0 % (W/W) in liquid, room temperature 24 hr",∘
same,solubility,"Table 1: citric acid 65 g, water 50 g, His 100 g, acidic substance/HIS 0.65 W/W, pH before His addition 0.30, HIS concentration 46.5 % (W/W) in liquid, room temperature 24 hr",∘
same,solubility,"Table 1: citric acid 80 g, water 50 g, His 120 g, acidic substance/HIS 0.67 W/W, pH before His addition 0.10, HIS concentration 48.0 % (W/W) in liquid, room temperature 24 hr",∘
same,solubility,"Table 1: malic acid 60 g, water 50 g, His 90 g, acidic substance/HIS 0.67 W/W, pH before His addition 0.40, HIS concentration 45.0 % (W/W) in liquid, room temperature 24 hr",∘
same,solubility,"Table 1: tartaric acid 60 g, water 50 g, His 90 g, acidic substance/HIS 0.67 W/W, pH before His addition 0.20, HIS concentration 45.0 % (W/W) in liquid, room temperature 24 hr",∘
same,solubility,"Table 2 (*1): citric acid 60 g, water 50 g, His 90 g, acidic substance/HIS 0.67 W/W, pH before His addition 0.40, HIS concentration 45.0 % (W/W) in liquid, room temperature 24 hr",∘
same,solubility,"Table 2 (*2, water reduced by evaporation under reduced pressure from *1): citric acid 60 g, water 10 g, His 90 g, acidic substance/HIS 0.67 W/W, HIS concentration 56.3 % (W/W) in liquid",∘
same,solubility,"Table 2 (*2, water reduced by evaporation under reduced pressure from *1): citric acid 60 g, water 20 g, His 90 g, acidic substance/HIS 0.67 W/W, HIS concentration 52.9 % (W/W) in liquid",∘
same,solubility,"Table 2: citric acid 65 g, water 50 g, His 100 g, acidic substance/HIS 0.65 W/W, pH before His addition 0.30, HIS concentration 46.5 % (W/W) in liquid, room temperature 24 hr",∘
same,solubility,"Table 2: citric acid 80 g, water 50 g, His 120 g, acidic substance/HIS 0.67 W/W, pH before His addition 0.10, HIS concentration 48.0 % (W/W) in liquid, room temperature 24 hr",∘
same,solubility,"Table 2: citric acid 120 g, water 50 g, His 180 g, acidic substance/HIS 0.67 W/W, HIS concentration 51.4 % (W/W) in liquid, room temperature 24 hr",∘
same,solubility,"Table 2: malic acid 60 g, water 50 g, His 90 g, acidic substance/HIS 0.67 W/W, pH before His addition 0.40, HIS concentration 45.0 % (W/W) in liquid, room temperature 24 hr",∘
same,solubility,"Table 2: malic acid 70 g, water 50 g, His 100 g, acidic substance/HIS 0.70 W/W, HIS concentration 45.5 % (W/W) in liquid, room temperature 24 hr",∘
same,solubility,"Table 2: tartaric acid 60 g, water 50 g, His 90 g, acidic substance/HIS 0.67 W/W, pH before His addition 0.20, HIS concentration 45.0 % (W/W) in liquid, room temperature 24 hr",∘
same,solubility,"Table 2: tartaric acid 60 g, water 50 g, His 100 g, acidic substance/HIS 0.60 W/W, pH before His addition 0.20, HIS concentration 47.6 % (W/W) in liquid, room temperature 24 hr",∘
same,solubility of histidine,"Table 3: amount of histidine added to acidic aqueous solution (water 50 g, citric acid 60 g) reduced",fine
same,solubility,"Table 3: citric acid 60 g, water 50 g, His 30 g, acidic substance/HIS 2.00 W/W, HIS concentration 21.4 % (W/W) in liquid, room temperature 24 hr",◯
same,solubility,"Table 3: citric acid 60 g, water 50 g, His 50 g, acidic substance/HIS 1.20 W/W, HIS concentration 31.3 % (W/W) in liquid, room temperature 24 hr",◯
same,solubility,"Table 3: citric acid 60 g, water 50 g, His 70 g, acidic substance/HIS 0.86 W/W, HIS concentration 38.9 % (W/W) in liquid, room temperature 24 hr",◯
same,solubility,"Table 3: citric acid 60 g, water 50 g, His 90 g, acidic substance/HIS 0.67 W/W, HIS concentration 45.0 % (W/W) in liquid, room temperature 24 hr",◯
same,solubility,"Table 4: citric acid 20.0 g, water 50 g, His 30 g, acidic substance/HIS 0.67 W/W, HIS concentration 30.0 % (W/W) in liquid, room temperature 24 hr",◯
same,solubility,"Table 4: citric acid 33.3 g, water 50 g, His 50 g, acidic substance/HIS 0.67 W/W, HIS concentration 37.5 % (W/W) in liquid, room temperature 24 hr",◯
same,solubility,"Table 4: citric acid 46.7 g, water 50 g, His 70 g, acidic substance/HIS 0.67 W/W, HIS concentration 42.0 % (W/W) in liquid, room temperature 24 hr",◯
same,solubility,"Table 4: citric acid 60 g, water 50 g, His 90 g, acidic substance/HIS 0.67 W/W, HIS concentration 45.0 % (W/W) in liquid, room temperature 24 hr",◯
same,solubility of histidine,"Table 4: histidine and acidic substance reduced at constant ratio, acidic substance/HIS=0.67 (w/w)",fine
same,solubility,"Table 5 (*1): citric acid 60 g, water 27.8 g, His 50 g, acidic substance/HIS 1.20 W/W, HIS concentration 36.3 % (W/W) in liquid, HIS content 180 % (W/W) to water, room temperature 24 hr",◯
same,solubility,"Table 5 (*2): citric acid 60 g, water 16.7 g, His 30 g, acidic substance/HIS 2.00 W/W, HIS concentration 28.1 % (W/W) in liquid, HIS content 180 % (W/W) to water",◯
same,solubility,"Table 5: citric acid 60 g, water 38.9 g, His 70 g, acidic substance/HIS 0.86 W/W, HIS concentration 41.4 % (W/W) in liquid, HIS content 180 % (W/W) to water, room temperature 24 hr",◯
same,solubility,"Table 5: citric acid 60 g, water 50 g, His 90 g, acidic substance/HIS 0.67 W/W, HIS concentration 45.0 % (W/W) in liquid, HIS content 180 % (W/W) to water, room temperature 24 hr",◯
same,solubility of histidine,"Table 5: histidine and water reduced at constant ratio, histidine content to water=180% (w/w)",fine
same,solubility,"Table 6: citric acid 2.7 g, water 37.3 g, His 10 g, acidic substance/HIS 0.27 W/W, HIS concentration 20.0 % (W/W) in liquid, room temperature 24 hr",∘
same,solubility,"Table 6: citric acid 3.7 g, water 36.3 g, His 10 g, acidic substance/HIS 0.37 W/W, HIS concentration 20.0 % (W/W) in liquid, room temperature 24 hr",∘
same,solubility,"Table 6: citric acid 4.7 g, water 35.3 g, His 10 g, acidic substance/HIS 0.47 W/W, HIS concentration 20.0 % (W/W) in liquid, room temperature 24 hr",∘
same,solubility,"Table 6: citric acid 5.7 g, water 34.3 g, His 10 g, acidic substance/HIS 0.57 W/W, HIS concentration 20.0 % (W/W) in liquid, room temperature 24 hr",∘
same,solubility,"Table 6: citric acid 6.7 g, water 33.3 g, His 10 g, acidic substance/HIS 0.67 W/W, HIS concentration 20.0 % (W/W) in liquid, room temperature 24 hr",∘
same,solubility,"Table 6: malic acid 2.7 g, water 37.3 g, His 10 g, acidic substance/HIS 0.27 W/W, HIS concentration 20.0 % (W/W) in liquid, room temperature 24 hr",∘
same,solubility,"Table 7: citric acid 6.0 g, water 29.0 g, His 15 g, acidic substance/HIS 0.40 W/W, HIS concentration 30.0 % (W/W) in liquid, room temperature 24 hr",∘
same,solubility,"Table 7: citric acid 7.0 g, water 28.0 g, His 15 g, acidic substance/HIS 0.47 W/W, HIS concentration 30.0 % (W/W) in liquid, room temperature 24 hr",∘
same,solubility,"Table 7: citric acid 8.0 g, water 27.0 g, His 15 g, acidic substance/HIS 0.53 W/W, HIS concentration 30.0 % (W/W) in liquid, room temperature 24 hr",∘
same,solubility,"Table 7: citric acid 9.0 g, water 26.0 g, His 15 g, acidic substance/HIS 0.60 W/W, HIS concentration 30.0 % (W/W) in liquid, room temperature 24 hr",∘
same,solubility,"Table 7: citric acid 10.0 g, water 25.0 g, His 15 g, acidic substance/HIS 0.67 W/W, HIS concentration 30.0 % (W/W) in liquid, room temperature 24 hr",∘
same,solubility,"Table 7: malic acid 6.0 g, water 29.0 g, His 15 g, acidic substance/HIS 0.40 W/W, HIS concentration 30.0 % (W/W) in liquid, room temperature 24 hr",∘
same,solubility of histidine,"acetic acid or phosphoric acid as acidic substance, acidic aqueous solution pH of not more than 1.0, room temperature 24 hr","not dissolved or, even when dissolved, precipitated"
same,solubility of histidine,"citric acid, malic acid or tartaric acid as acidic substance, pH of not more than 1.0, amount corresponding to concentration of not less than 45 wt %",finely dissolved
same,solubility of histidine,"histidine 20 wt %, 0.17 part by weight of acidic substance per 1 part by weight of histidine",not dissolved
same,solubility of histidine,"histidine 20 wt %, not less than 0.27 part by weight of acidic substance per 1 part by weight of histidine",fine
same,solubility of histidine,"histidine 30 wt %, 0.33 part by weight of acidic substance per 1 part by weight of histidine",not dissolved
same,solubility of histidine,"histidine 30 wt %, not less than 0.40 part by weight of acidic substance per 1 part by weight of histidine",fine
same,histidine concentration of liquid composition that could be prepared,"not less than 0.65 part by weight of citric acid, not less than 0.67 of malic acid, or not less than 0.60 of tartaric acid per 1 part by weight of histidine",not less than 45 wt %
